Reference: PMC4369398 (Journal of colloid and interface science, 2014)

What was measured:
[1] = Self-assembly in water; format: physicochemical; settings: for diameter (width) of self-assembled nanofibers: TEM, pH 7.0, 2.0 wt %, direct self-assembly without enzyme; for appearance / state in water: pH 7.0, 2.0 wt % concentration, optical image, for 2 via pH adjustment
[2] = biological target: T1, CD73 (Homo sapiens, UniProt P21589)
T1 sequence (P21589 27-574): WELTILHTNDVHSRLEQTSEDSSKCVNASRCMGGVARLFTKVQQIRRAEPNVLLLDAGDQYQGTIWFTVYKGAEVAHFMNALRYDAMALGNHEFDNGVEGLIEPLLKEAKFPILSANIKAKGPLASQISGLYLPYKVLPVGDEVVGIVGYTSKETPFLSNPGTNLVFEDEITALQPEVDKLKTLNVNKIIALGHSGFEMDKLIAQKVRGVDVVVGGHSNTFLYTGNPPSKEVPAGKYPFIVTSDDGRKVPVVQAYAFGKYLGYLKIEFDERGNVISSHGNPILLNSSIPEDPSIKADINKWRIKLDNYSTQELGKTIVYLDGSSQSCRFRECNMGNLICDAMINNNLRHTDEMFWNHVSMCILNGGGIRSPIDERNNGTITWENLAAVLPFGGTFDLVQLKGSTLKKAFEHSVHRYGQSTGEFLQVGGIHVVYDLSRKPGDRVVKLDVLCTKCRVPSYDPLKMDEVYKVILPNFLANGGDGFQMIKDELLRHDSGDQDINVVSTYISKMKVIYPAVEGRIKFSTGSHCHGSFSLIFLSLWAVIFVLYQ

SMILES | diameter (width) of self-assembled nanofibers [1] [nm] | appearance / state in water [1] | hydrogel formation on adding CD73 ([2]; 1 μg of CD73 added to 0.5 mL of 2 wt % solution, 37 °C, pH 7.0) | diameter of nanofibers of the CD73-formed hydrogel ([2]; TEM, after CD73 treatment, pH 7.0, 2.0 wt %) [nm]
O=C(Cc1ccc2ccccc2c1)N[C@H](Cc1ccccc1)C(=O)N[C@H](Cc1ccccc1)C(=O)N[C@H](CCCCNc1ncnc2c1ncn2[C@@H]1O[C@H](CO)[C@@H](O)[C@H]1O)C(=O)O [compound 2, naphthalene-D-Phe-D-Phe-D-Lys(adenosine)] | 5 ± 1 | transparent hydrogel | – | –
O=C(Cc1ccc2ccccc2c1)N[C@H](Cc1ccccc1)C(=O)N[C@H](Cc1ccccc1)C(=O)N[C@H](CCCCNc1ncnc2c1ncn2[C@@H]1O[C@H](COP(=O)(O)O)[C@@H](O)[C@H]1O)C(=O)O [compound 1, naphthalene-D-Phe-D-Phe-D-Lys(AMP)] | 8 ± 1 | transparent solution | hydrogel formation after three days | 8 ± 1
